Like-named read-outs stand apart in the source and are kept apart here.

The target in one assay is T1, δ-opioid receptor (Mus musculus, UniProt P32300).
T1 construct: from tissue; host or cells: vas deferens of male ddy mice
The assay can be described thus: Change in δ-antagonist activity against DPDPE with time in mouse vas deferens (MVD). As to conditions: for Ratio of IC50 Values / Kb: 173 and NTI at 20 nM, 174 and 5'-NTII at 100 nM; for Kb: read-out: Ke. As for the experimental part: In this experiment, ddy male mice were used. In a Magnus' tube which is filled with Krebes-Henseleit solution (NaCl […]; KCl 4.7 mM; CaCl2 2.5 mM; KH2 PO4 1.1 mM; NaHCO3 25 mM; glucose 11 mM) kept at 37° C., and into which an atmosphere consisting of 5% carbon dioxide and 95% oxygen was flown, vas deferens taken from the animals was suspended. Electric stimulation was applied through ring-shaped platinum electrodes mounted on the upper and lower portions of the tube at a frequency of 0.1 Hz and 5.0 mS duration. The contraction of the tissue was recorded on polygraph using isometric transducer.
Then 100 nM of the test compound was added. Twenty minutes later, DPDPE was begun to be added cumulatively. The ratio of IC50 values in the presence and absence of the test compound, Ke value (the molar concentration of the test compound necessary for translating the dose-effect curve to the curve of twice dose) and pA2 value were determined. The pA2 value was determined by the method of Shild et al (Shild, H. O., Br. J. Pharmac. Chamotehr., 4, 277 (1949)). That is, the logarithm of the test compound (log[test compound]) was plotted along the abscissa and the logarithm of the value obtained by subtracting 1 from the ratio of IC50 values was plotted in the presence and absence of the test compound [log(dose ratio-1)] along the ordinate. The pA2 value was determined from the value on the abscissa when the value on the ordinate of the obtained line is 0.
Using MVD, the antagonist activities of compounds 173 and 174 against DPDPE were determined. The ratio of IC50 values, Ke values and pA2 values at 15 minutes, 30 minutes and 1 hour from the addition of the test compounds were calculated. Since the concentrations of the test compounds are different, the reciprocals of Ke values were plotted in FIGS. 1 and 2.

The subject of assay [1] is delayed type hypersensitivity. The assay can be described thus: Mouse Delayed Type Hypersensitivity Reaction Suppression Test-3 (administration into cerebral ventricles). Type of assay: in vivo. As to conditions: 5×10^-8 mol/mouse into cerebral ventricles; BALB/c. The source says: BALB/c mice (male, 7 weeks old) were used, and each group consisted of 4-5 mice. Spleen cells (1×10^7) obtained from a donor mouse (C57BL/6) was subcutaneously administered to sensitize the mice. On Day 7 from the sensitization, the spleen cells (5×10^6) of the donor were subcutaneously administered on the right footpad and spleen cells (5×10^6) obtained from a mouse of the same strain as the recipient mice were subcutaneously administered on the left footpad. Twenty four hours later, the thicknesses of the right and left footpads were measured with a dial thickness gage, and the difference in thicknesses of the right and left footpads before the induction of the reaction and 24 hours after the induction of the reaction was employed as the index of the degree of the reaction.
The test compound was dissolved in water and 5×10^-8 mol/mouse was administered into cerebral ventricles. In the control group, water alone was administered similarly. The dose was 5 μl/mouse in both the study groups and the control group.

The test system of a further assay is immune system. Conditions: in vitro and in vivo; Kokai No. 3-223288; cited from earlier work.

T1 sequence (P32300 whole entry): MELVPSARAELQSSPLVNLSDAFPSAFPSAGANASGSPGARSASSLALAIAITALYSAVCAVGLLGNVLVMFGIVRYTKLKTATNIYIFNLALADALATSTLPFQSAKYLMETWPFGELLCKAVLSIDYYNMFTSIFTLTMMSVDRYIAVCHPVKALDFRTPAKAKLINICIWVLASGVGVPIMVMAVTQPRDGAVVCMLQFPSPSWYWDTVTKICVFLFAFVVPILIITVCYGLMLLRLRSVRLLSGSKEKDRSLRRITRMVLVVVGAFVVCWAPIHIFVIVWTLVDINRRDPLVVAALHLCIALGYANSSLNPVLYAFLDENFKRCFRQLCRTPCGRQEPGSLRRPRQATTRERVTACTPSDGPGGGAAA

Consider `Oc1ccc2c3c1O[C@H]1c4[nH]c5ccccc5c4C[C@@]4(O)[C@@H](C2)N(CC2CC2)CC[C@]314` [NTI, reference compound], for which the “Ratio of IC50 Values” at δ-opioid receptor (15 min) turned out to be 96.3; at δ-opioid receptor (30 min) it was 95.6; on δ-opioid receptor (60 min), 83.7. Also, the Kb on δ-opioid receptor (15 min) came out at 0.21 nM; at δ-opioid receptor (30 min), 0.21 nM; at δ-opioid receptor (60 min), 0.24 nM. In addition, on δ-opioid receptor (15 min to 1 hour), the “change of antagonist activity with time (in words)” value is “did not change”. In addition, the “% Suppression” value in assay [1] was found to be 40%. Also, in the assay with immune system, the “immunosuppressive action (in words)” value is “exhibits immunosuppressive action in vitro and in vivo”.

(Values after patent publication US6291470A, “Indole derivatives process for producing the same and medicinal uses of the same” (Toray Industries, Inc., priority 1992, dated 2001).)
